According to patent US20040018581A1, “Method for discovering substances for inhibiting enzymes” (Pharmacia and UpJohn Company, priority 2002, published 2004):

Key:
[1] = tested on: Δgpd1-pYES2/m1pdh (Saccharomyces cerevisiae Δgpd1 expressing Eimeria tenella m1pdh); assay: Growth inhibition of yeast transformant Δgpd1-pYES2/m1pdh in liquid YEPD with or without 1.5 M NaCl (OD 600); assay type: cell-based
Method: (§1) Transformants growing on high salt plates were picked and grown in 18×150 mm glass culture tubes containing 10 ml liquid YEPD medium or liquid YEPD medium with 1.5 M NaCl. These tubes were inoculated with approximately 10^5 cells and cultured at 30° C. on a roller bottle. Growth rates were recorded in terms of optical density values at various times after inoculation. Growth rates were also monitored in 96-well plates using the indicator dye Alamar Blue (BioSource International, Camarillo, Calif.) as previously described by Klein et al., (1997b). In 96-well plate experiments, each well contained approximately 10^4 cells (in 20 ul medium) inoculated into 180 ul liquid YEPD medium or liquid YEPD medium containing 1.5 M NaCl. These plates were then incubated at 30° C. for 24 or 48 hours. At that time, 20 ul Alamar Blue solution was added to each well and the color allowed to develop for 5-30 minutes. Color changes in each well were noted after visual inspection and recorded.
(§2) Nitrophenide, a known inhibitor of MIPDH (Schmatz 1997), was used to validate the assay. The Δgpd1transformed with pYES21/m1pdh was grown in liquid YEPD medium, either supplemented with 1.5 M NaCal or not and containing one of 3 concentrations of nitrophenide (Aldrich Chemical Co.) dissolved in DMSO. Experiments were conducted in glass culture tubes prepared and processed as described above. Growth in nitrophenide-containing media was compared to growth in identical medium lacking nitrophenide by measuring and recording changes at OD 600 nm after 24, 48 or 72 hours in culture as described above.
(§3) Test groups of each sample organism were inoculated into liquid cultures of YEPD and YEPD with 1.5 M NaCl. Rate of growth was estimated by recording OD 600 values at 24 hr intervals. All strains grew equally well in YEPD, but growth rates in YEPD with 1.5 M NaCl were distinctly different between transformants expressing mt1D or m1pdh and controls as shown in FIG. 3.
Nitrophenide was dissolved in DMSO and added to cultures at final concentrations of 1 μM, 2.5 μM or 10 μM. DMSO alone was also tested. Little toxicity was apparent for DMSO or for nitrophenide in YEPD except at 10 μM, a concentration at which slowing of the rate of growth of Δgpd1-pYES2/mt1D and Δgpd1-pYES2/MIPDH was observed as shown in FIG. 4. However, in YEPD with 1.5 M NaCl, nitrophenide was toxic to Δgpd1-pYES2/mt1D and Δgpd1-pYES2/MIPDH at concentrations as low as 2.5 uM and abolishes growth at 10 uM as shown in FIG. 4. Nitrophenide was also toxic to W303-1A under these conditions, but this strain grew more slowly than either of the transformants under salt pressure. The difference in rate of growth made comparisons between strains difficult.

[2] = tested on: Δgpd1-pYES2/mt1D (Saccharomyces cerevisiae Δgpd1 expressing E. coli mt1D); assay: Growth inhibition of yeast transformant Δgpd1-pYES2/mt1D in liquid YEPD with or without 1.5 M NaCl (OD 600); assay type: cell-based
Method: as §1, §2, §3
Nitrophenide was dissolved in DMSO and added to cultures at final concentrations of 1 μM, 2.5 μM or 10 μM. DMSO alone was also tested. […]

[3] = tested on: W303-1A; assay: Growth inhibition of wild-type yeast W303-1A in YEPD with 1.5 M NaCl (OD 600); assay type: cell-based, Saccharomyces cerevisiae
Method: as §1
as §2, with “Growth in nitrophenide-containing media was compared to growth in identical medium lacking nitrophenide by measuring and recording changes at OD 600 nm after 24, 48 or 72 hours in culture as described above.” left out

[4] = YEPD with 1.5 M NaCl, tested at 1, 2.5 and 10 μM
[5] = YEPD without added NaCl, little toxicity at lower concentrations

O=[N+]([O-])c1cccc(SSc2cccc([N+](=O)[O-])c2)c1 [Nitrophenide, nitrophenide]
concentration that abolishes growth ([1]; YEPD with 1.5 M NaCl): 10 µM | lowest concentration toxic to growth [1, 4]: 2.5 µM | concentration at which slowing of the rate of growth was observed [1, 5]: 10 µM | effect on growth (FIG. 4) ([1]; medium containing 1.5 M NaCl): dramatically suppressed | toxicity compared with 1.5 M NaCl medium (FIG. 4) ([1]; medium with no additional NaCl): reduced | concentration that abolishes growth ([2]; YEPD with 1.5 M NaCl): 10 µM | lowest concentration toxic to growth [2, 4]: 2.5 µM | concentration at which slowing of the rate of growth was observed [2, 5]: 10 µM | toxicity to growth [3]: toxic
